Patent US20260274832A1, “COMPOUNDS AND THEIR USE IN TREATING CANCER” (ASTRAZENECA AB, priority 2023, published 2026)

Key:
[1] = target: T1, AR (AR-full length) in LNCaP cells (Homo sapiens, UniProt P10275, T878A); assay: LNCaP Androgen Receptor Imaging Assay (immunofluorescence of endogenous nuclear AR); format: cell-based; settings: 24 h incubation; for DC50: concentration giving 50% of maximum degradation of AR per curve fit, single experiment or average of two or more; for LNCaP AR Degradation Dmax / Dmax: maximum degradation observed, normalized as % of positive control (prior art AR PROTAC at 3 μM); for Dmax: LNCaP
T1 construct: the prostate cancer cell line LNCaP (expressing AR-full length); endogenous in cells; host or cells: LNCaP
T1 sequence (P10275 whole entry T878A): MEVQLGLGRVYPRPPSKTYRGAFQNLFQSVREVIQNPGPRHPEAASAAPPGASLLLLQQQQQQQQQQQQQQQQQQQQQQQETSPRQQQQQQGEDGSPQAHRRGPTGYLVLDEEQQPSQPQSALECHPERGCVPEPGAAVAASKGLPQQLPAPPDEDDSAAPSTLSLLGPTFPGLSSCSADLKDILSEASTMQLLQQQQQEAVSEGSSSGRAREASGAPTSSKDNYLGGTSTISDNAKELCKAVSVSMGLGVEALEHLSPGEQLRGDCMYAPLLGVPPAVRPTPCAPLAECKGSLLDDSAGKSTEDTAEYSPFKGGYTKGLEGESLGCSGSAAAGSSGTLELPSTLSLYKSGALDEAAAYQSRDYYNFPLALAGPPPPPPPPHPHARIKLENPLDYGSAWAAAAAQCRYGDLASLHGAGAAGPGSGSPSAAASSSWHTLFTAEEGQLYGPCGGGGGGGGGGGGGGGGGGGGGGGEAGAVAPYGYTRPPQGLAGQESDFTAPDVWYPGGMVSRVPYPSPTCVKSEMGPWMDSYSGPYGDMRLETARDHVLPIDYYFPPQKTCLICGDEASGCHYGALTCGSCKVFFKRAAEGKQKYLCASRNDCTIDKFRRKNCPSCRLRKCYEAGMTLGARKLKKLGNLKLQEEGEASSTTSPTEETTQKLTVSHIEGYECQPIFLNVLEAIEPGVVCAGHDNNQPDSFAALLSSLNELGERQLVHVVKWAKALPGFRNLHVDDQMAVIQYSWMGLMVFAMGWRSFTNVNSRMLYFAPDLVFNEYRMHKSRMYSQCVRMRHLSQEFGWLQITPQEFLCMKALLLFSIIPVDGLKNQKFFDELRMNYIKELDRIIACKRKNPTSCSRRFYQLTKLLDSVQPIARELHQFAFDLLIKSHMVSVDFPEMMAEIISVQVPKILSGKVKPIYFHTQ
T1 sequence (Q96SW2 whole entry partner): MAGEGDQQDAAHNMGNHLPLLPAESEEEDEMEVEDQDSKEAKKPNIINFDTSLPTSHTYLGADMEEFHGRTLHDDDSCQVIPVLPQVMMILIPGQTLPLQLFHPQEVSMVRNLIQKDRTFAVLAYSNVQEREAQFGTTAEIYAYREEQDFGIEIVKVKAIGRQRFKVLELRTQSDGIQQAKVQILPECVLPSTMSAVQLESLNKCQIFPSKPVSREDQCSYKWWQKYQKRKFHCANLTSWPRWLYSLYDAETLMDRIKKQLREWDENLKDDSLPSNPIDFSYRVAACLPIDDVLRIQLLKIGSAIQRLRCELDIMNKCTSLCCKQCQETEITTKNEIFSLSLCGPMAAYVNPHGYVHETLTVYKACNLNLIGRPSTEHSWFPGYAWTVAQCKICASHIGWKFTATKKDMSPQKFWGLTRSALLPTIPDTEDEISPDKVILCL
Method: This cell-based imaging assay uses immuno-fluorescence to measure endogenous nuclear AR staining in the prostate cancer cell line LNCaP (expressing AR-full length). The purpose of the assay is to identify compounds that regulate AR protein level according to the protocol laid out in the steps below.
(§1) All work was performed in a sterile tissue culture hood up to the point of cell fixation. LNCaP cells were cultured at 6-8×10^6 per T175 flask and split every 3-4 days. Medium: RPMI (R7638, VWR Sigma) containing 10% FCS and 1% glutamine. Cells were plated in black wall transparent bottom plates at a density of 12,000 cells (Cedex™ Cell counter, Beckmann & Coulter), 40 μL per well, using a Multidrop (ThermoFisher).
(§2) Cells were dosed with test compound diluted in DMSO using an Echo 555/655™ (Labcyte) and the final concentration of DMSO in the well was 0.3%. A neutral control (DMSO) and a positive AR degrader control at 3 μM (a prior art AR PROTAC) were included. The Echo uses acoustic technology to perform direct microplate-to-microplate transfers of DMSO compound solutions to assay plates. The system can be programmed to transfer volumes as low as 2.5 nL in multiple increments between microplates and in so doing generates a serial dilution of compound in the assay plate which is then back-filled to normalise the DMSO concentration across the dilution range. Compounds were dispensed as a 12 point dose response with indicated concentrations. The plates were incubated at 37° C./5% CO2 for 24 h and then fixed and stained as below. 40 μL of 8% paraformaldehyde solution (v/v) in phosphate buffered saline (PBS) was added on top of the media already in the well using a Multidrop to fix plates giving a final concentration of 4% PFA (v/v) for 20-30 minutes (keep in fume hood to minimise PFA exposure). After 20-30 mins, the plates were washed with 3×PBS using a BioTek washer in a fume hood. A shake out of remaining volume in the well was performed to ensure best removal of remaining PBS. At this plates could be stored in PBS after washing for at least 3 days at 4° C., if so, PBS was removed by the BioTek before continuing with the next step.
(§3) The cells were incubated with a Mouse monoclonal Anti-AR antibody AR441 (DAKO M3562) (1:1000), diluted in modified blocking buffer (PBS+1% BSA+0.1% TritonX); 15 μL/well for 2 h at RT. The plates were then washed with 3×PBS using a BioTek washer. A shake out of remaining volume in the well was performed to ensure best removal of remaining PBS. Cells were then incubated with Goat anti-mouse secondary antibody 488 (Invitrogen A11001) (1:500) and nuclear stain, DRAQ5 (Abcam Ab108410) (1:2000) diluted in modified blocking buffer for 45 mins at room temperature 15 μL/well. Plates are then washed with 3×PBS using a BioTek washer, without final aspiration, and sealed with black plate seals. Plates could be stored after staining for three days at 4° C. before read if required.
(§4) Plates are read using a Cellomics Cellinsight to measure the Androgen Receptor level in each well. The data is exported into Genedata to perform curve fitting analysis. All data are normalized as % of positive control and the BellFit method automatically determines the correct fit method based on the presence of hook effect, choosing the BellFit when there is a hook and HillFit when there is no hook. Down-regulation of AR is expressed as a DC50 value and determined by calculation of the concentration of compound that is required to give 50% of maximum degradation of AR as per the curve fit for that compound. The maximum degradation observed for each compound is expressed as Dmax. The AR degradation data for compounds is shown in the table below and may be a result from a single experiment or an average of two or more experiments.

[2] = target: T2, AR (L702H) in LNCaP cells (Homo sapiens, UniProt P10275, L702H/T878A); assay: LNCaP Androgen Receptor L702H Imaging Assay (LNCaP cells engineered by CRISPR/Cas9); format: cell-based; settings: LNCaP cells with AR L702H mutation, 24 h incubation; for DC50: concentration giving 50% of maximum degradation of AR (L702H) per curve fit; for LNCaP AR (L702H) Degradation Dmax / Dmax: maximum degradation observed, normalized as % of positive control; for Dmax: LNCaP
T2 construct: engineered to introduce the mutation L702H into the AR gene using CRISPR/Cas9; endogenous in cells; host or cells: LNCaP cells edited by CRISPR/Cas9 at the AR gene
T2 sequence (P10275 whole entry L702H/T878A): as the sequence (P10275 whole entry T878A) above, with L702H counted along it
T2 sequence (Q96SW2 whole entry partner): as the sequence (Q96SW2 whole entry partner) above
Method: as §1, §2, §3, §4
At this stage, anti-androgen therapy is largely ineffective due to AR amplification, overexpression or point mutation. One of the point mutations observed in patient populations is L702H in the AR Ligand Binding Domain. LNCAP cells have been engineered to introduce the mutation L702H into the AR gene using CRISPR/Cas9. The previously described imaging-based AR assay will monitor nuclear AR (L702H) levels in these cells to identify compounds that regulate AR (L702H). […]

DC50 [1] [nM] | LNCaP AR Degradation Dmax [1] [%] | DC50 [2] [nM] | LNCaP AR (L702H) Degradation Dmax [2] [%] | Dmax [1] [%] | Dmax [2] [%] | SMILES
6 | 96 | 5 | 106 |  |  | N#Cc1c[nH]c2c(N3CCC(c4ccc(N5CCC(CN6CCN(c7ccc8c(c7)CN(C7CCC(=O)NC7=O)C8=O)CC6)CC5)cc4)CC3)ccc(F)c12 (single isomer, unassigned) [Example 4, 7-(4-{4-[4-({4-[2-(2,6-Dioxopiperidin-3-yl)-1-oxo-2,3-dihydro-1H-isoindol-5-yl]piperazin-1-yl}methyl)piperidin-1-yl]phenyl}piperidin-1-yl)-4-fluoro-1H-indole-3-carbonitrile]
20 |  | 29 |  | 95 | 99 | N#Cc1c[nH]c2c(N3CCC(c4ccc(N5CC6(CCC(CN7CCN(c8ccc9c(c8)CN(C8CCC(=O)NC8=O)C9=O)CC7)CC6)C5)cc4)CC3)ccc(Cl)c12 (stereo not drawn) [Example 129, 4-Chloro-7-(4-{4-[7-({4-[2-(2,6-dioxopiperidin-3-yl)-1-oxo-2,3-dihydro-1H-isoindol-5-yl]piperazin-1-yl}methyl)-2-azaspiro[3.5]nonan-2-yl]phenyl}piperidin-1-yl)-1H-indole-3-carbonitrile]
19 |  | 36 |  | 92 | 76 | N#Cc1c[nH]c2c(N3CCC(c4cccc(N5CCC(CN6CCN(c7ccc8c(c7)CN(C7CCC(=O)NC7=O)C8=O)CC6)CC5)c4)CC3)ccc(Cl)c12 (stereo not drawn) [Example 113, 4-Chloro-7-(4-{3-[4-({4-[2-(2,6-dioxopiperidin-3-yl)-1-oxo-2,3-dihydro-1H-isoindol-5-yl]piperazin-1-yl}methyl)piperidin-1-yl]phenyl}piperidin-1-yl)-1H-indole-3-carbonitrile]
14 |  | 23 |  | 80 | 81 | N#Cc1c[nH]c2c(N3CCC(c4ccc(N5CCN(CC6CCN(c7ccc8c(c7)CN(C7CCC(=O)NC7=O)C8=O)CC6)CC5)cc4)CC3)ccc(F)c12 (stereo not drawn) [Example 22]
4 | 102 | 5 | 102 |  |  | N#Cc1c[nH]c2c(N3CCC(c4ccc(N5CCC(CN6CCN(c7ccc8c(c7)CN(C7CCC(=O)NC7=O)C8=O)CC6)CC5)cc4)CC3)ccc(Cl)c12 (single isomer, unassigned) [Example 19, 4-Chloro-7-[4-(4-{4-[(4-{2-[(3S*)-2,6-dioxopiperidin-3-yl]-1-oxo-2,3-dihydro-1H-isoindol-5-yl}piperazin-1-yl)methyl]piperidin-1-yl}phenyl)piperidin-1-yl]-1H-indole-3-carbonitrile]

The next lines start with the compound.

SMILES | DC50 [1] [nM] | LNCaP AR Degradation Dmax [1] [%] | DC50 [2] [nM] | LNCaP AR (L702H) Degradation Dmax [2] [%] | Dmax [1] [%] | Dmax [2] [%]
Cc1ccc(N2CCC(c3ccc(OCCCCN4CCN(c5ccc6c(c5)CN(C5CCC(=O)NC5=O)C6=O)CC4)cc3)CC2)c2[nH]cc(C#N)c12 (stereo not drawn) [Example 28, 7-{4-[4-(4-{4-[2-(2,6-dioxopiperidin-3-yl)-1-oxo-2,3-dihydro-1H-isoindol-5-yl]piperazin-1-yl}butoxy)phenyl]piperidin-1-yl}-4-methyl-1H-indole-3-carbonitrile] | 5 |  | 23 |  | 96 | 83
Cc1ccc(C2CCCN(c3ccc(N4CCC(CN5CCN(c6ccc7c(c6)CN(C6CCC(=O)NC6=O)C7=O)CC5)CC4)cc3)C2)c2[nH]cc(C#N)c12 (single isomer, unassigned) [Example 82, 7-[(3R*)-1-{4-[4-({4-[2-(2,6-dioxopiperidin-3-yl)-1-oxo-2,3-dihydro-1H-isoindol-5-yl]piperazin-1-yl}methyl)piperidin-1-yl]phenyl}piperidin-3-yl]-4-methyl-1H-indole-3-carbonitrile] | 31 |  | 22 |  | 90 | 91
N#Cc1c[nH]c2c(C3CCC(NC(=O)c4ccc(N5CCC(CN6CCC(n7ccc8c(N9CCC(=O)NC9=O)cccc87)CC6)CC5)cc4F)CC3)ccc(Cl)c12 (stereo not drawn) [Example 174, N-[4-(4-Chloro-3-cyano-1H-indol-7-yl)cyclohexyl]-4-[4-({4-[4-(2,4-dioxo-1,3-diazinan-1-yl)-1H-indol-1-yl]piperidin-1-yl}methyl)piperidin-1-yl]-2-fluorobenzamide] | 3 |  | 13 |  | 106 | 104
COc1nc(N2CCN(CC3CCN(c4ccc([C@@H]5CCCN(c6ccc(Cl)c7c(C#N)c[nH]c67)C5)cc4)CC3)CC2)cc2c1C(=O)N(C1CCC(=O)NC1=O)C2 (stereo partly drawn) [Example 38, 4-Chloro-7-[(3S)-3-{4-[4-({4-[2-(2,6-dioxopiperidin-3-yl)-4-methoxy-3-oxo-2,3-dihydro-1H-pyrrolo[3,4-c]pyridin-6-yl]piperazin-1-yl}methyl)piperidin-1-yl]phenyl}piperidin-1-yl]-1H-indole-3-carbonitrile] | 9 |  | 12 |  | 97 | 95
N#Cc1n[nH]c2c(N3CCC[C@@H](c4ccc(N5CCC(CN6CCN(c7ccc8c(c7)CN(C7CCC(=O)NC7=O)C8=O)CC6)CC5)cc4)C3)ccc(Cl)c12 (stereo partly drawn) [Example 10, 4-Chloro-7-[(3S)-3-{4-[4-({4-[2-(2,6-dioxopiperidin-3-yl)-1-oxo-2,3-dihydro-1H-isoindol-5-yl]piperazin-1-yl}methyl)piperidin-1-yl]phenyl}piperidin-1-yl]-1H-indazole-3-carbonitrile] | 7 |  | 5 |  | 96 | 103
N#Cc1c[nH]c2c(N3CCC(c4ccc(N5CCC(CN6CCC(n7ccc8cc(N9CCC(=O)NC9=O)ccc87)CC6)CC5)cc4)CC3)ccc(F)c12 [Example 89, 7-(4-{4-[4-({4-[5-(2,4-Dioxo-1,3-diazinan-1-yl)-1H-indol-1-yl]piperidin-1-yl}methyl)piperidin-1-yl]phenyl}piperidin-1-yl)-4-fluoro-1H-indole-3-carbonitrile] | 421 |  | 56 |  | 70 | 97
N#Cc1c[nH]c2c(N3CCC(c4ccc(N5CCC(CN6CCC(n7ccc8c(N9CCC(=O)NC9=O)cccc87)CC6)CC5)cc4)CC3)cccc12 [Example 59, 7-(4-{4-[4-({4-[4-(2,4-Dioxo-1,3-diazinan-1-yl)-1H-indol-1-yl]piperidin-1-yl}methyl)piperidin-1-yl]phenyl}piperidin-1-yl)-1H-indole-3-carbonitrile] | 51 |  | 47 |  | 88 | 95
